Experimental findings from patent publication US8598339B2, “Withanolide isolated from Physalis longifolia and analogs and methods of use thereof” (University of Kansas, priority 2011, dated 2013) are described below.

As a reminder, the IC50 is the concentration that inhibits the measured activity by half.

Series [1] concerns BT20 cells. Kind of series: Cell cycle analysis, BT20. The series is classed as cell-based. The conditions noted are these: 2 μM; 24-hour treatment.
Series [2] concerns TT medullary thyroid cancer cells. The experiment in a line: MTS cell viability assay, TT. The series is classed as cell-based. The conditions noted are these: Table 1, 72-hour treatment. The protocol: Human carcinoid cells, NCI-H727 (ATCC, Manassas, Va.), were cultured under standard conditions. Squamous cell carcinoma of head and neck cells, MDA1986 (Myers, et al. (2002) Clin. Cancer Res. 8:293) and JMAR (Swan, et al. (2003) Oral Oncol. 39:648-55); and melanoma cells lines B16F10 (ATCC, Manassas, Va.) and SKMEL28 (CLS, Eppelheim, Germany) were cultured in DMEM medium supplemented with 10% heat-inactivated fetal bovine serum (Sigma-Aldrich, St. Louis, Mo.), 1×MEM-essential amino acid, 1×MEM vitamin, and penicillin/streptomycin (Sigma-Aldrich, St. Louis, Mo.) in a humid environment of 5% CO2 at 37° C. Activity of withanolides against DRO81-1 and TT medullary thyroid cancer cells was also determined.
Cells were cultured in 96 well plates at a concentration of 1-2×10^4 cells/mL. Cell viability was assessed with the nonradioactive cell proliferation MTS assay using Cell Titer 96AQUEOUS One Solution Reagent (PROMEGA, Madison, Wis.), according to the manufacturer's instruction. After a 72-hour treatment, 20 μL of Cell Titer 96AQUEOUS One Solution Reagent were added to each well and incubated for 3 hours at 37° C. 5% CO2, and formazan absorbance was measured at 490 nm.
(Formazan colour is commonly taken as a measure of viable cells.)

The test system of series [3] is DRO81-1 medullary thyroid cancer cells. Kind of series: PARP cleavage, DRO81-1. The series is classed as cell-based.
For series [4], the system named is HCC1937 (BRCA-1 mutant) cells. The experiment in a line: MTS assay, HCC1937. The class given is cell-based. As to the method:
(§1) Cell proliferation was analyzed using MTS assay.

For series [5], the system named is caspase-3, PARP, BRCA-1, HSF1, mutant p53, Notch1, Jagged1 in MDA-MB-231 cells. Kind of series: Western blot, MDA-MB-231. The series is classed as cell-based. The conditions noted are these: 24-hour or 48-hour treatment.
Series [6] deals with RET, mTOR, 4E-BP1, P70S6 kinase, akt, pERK in medullary thyroid cancer cells. Kind of series: Mechanistic pathway protein levels in medullary thyroid cancer cells. The series is classed as cell-based. The conditions noted are these: 24 hours; 0.5, 1, 3, and 6 μM. The protocol: Additional analysis of X005, X032 and X033 was carried out in medullary thyroid cancer cells. […] Therefore, this analysis indicates the importance of this double bond in the A-ring to anti-cancer activity.

The test system of series [7] is BT20 cells. Kind of series: Clonogenic assay, BT20. The series is classed as cell-based. The note with it: 1-2 μM; treated 24 hours, cultured two weeks.
Series [8] can be described thus: In vitro metabolism, human liver microsomes. The class given is in vitro ADME. The note with it: 1.0E-06 M. As to the method:
(§2) The in vitro metabolism of […], as compared to known reference compounds, was analyzed using liver microsomes from human, dog (Beagle), rat (Sprague-Dawley) and mouse (CD-1). […] Results are from two independent tests.
On the technique in general: Microsomes from liver hold many membrane-bound enzymes, among them those of drug oxidation.

The nature of series [9]: In vitro metabolism, dog liver microsomes. The conditions noted are these: 1.0E-06 M. The class given is in vitro ADME, dog (Beagle). The protocol:
as §2

Another series deals with Ames test strain TA100. The experiment in a line: Ames test, TA100.
A further series relates to HMLEC. The experiment in a line: MTS assay, HMLEC. The conditions noted are these: HMLEC (normal). The series is classed as cell-based. The protocol: as §1
Series [10] concerns Salmonella typhimurium TA100. The experiment in a line: Cytotoxicity in tester strain TA100 without S9. The class given is cell-based.
The next series relates to MCF-7 cells. Kind of series: Annexin V-FITC/Propidium Iodide apoptosis, MCF-7. The series is classed as cell-based. The conditions noted are these: 1-4 μM, 24 and 48 hours. The source says:
Therefore, this cell line was not very sensitive to X001 in this assay.

In another series the test system is MDA-MB-231 cells. Kind of series: Cell cycle analysis, MDA-MB-231. The series is classed as cell-based. The conditions noted are these: 4 and 8 μM; 24-hour treatment.
The subject of series [11] is heat shock factor (HSF) / HSE-luciferase in Hs766T cells. Kind of series: HSE-luciferase reporter, Hs766T. The class given is cell-based. Further details: dose or concentration left out as unconfirmed. The note with it: heat shock 42° C. 30 minutes; recovery 8 hours. As to the method:
To monitor the activation of heat shock factor (HSF) and heat shock-mediated signal transduction pathways, Hs766T cells were transfected with a HSE-luciferase construct, then treated with 3 mM of the selected withanolides for 8 hours. The cells were heat shocked at 42° C. for 30 minutes and allowed to recover at 37° C. for 8 hours. Cells were lysed and luciferase activity was measured on a plate reader.
Background: In a reporter assay the amount or activity of a reporter protein is the signal.

For series [12], the system named is Hsp70 and Hsp40 in Hs766T cells. Kind of series: Heat shock-induced Hsp70 and Hsp40 protein levels, Hs766T. The class given is cell-based. The conditions noted are these: pretreatment 8 hours; 30-minute heat shock at 42° C.; further 8 hours. As to the method:
For this analysis, Hs766T cells were incubated with X003 for 8 hours, followed by a 30-minute heat shock at 42° C. The cells were further incubated for 8 hours and Hsp70 and Hsp40 levels were determined.

Series [13] concerns HSF1, Hsp70 and Hsp40 mRNA. The experiment in a line: HSF1, Hsp70 and Hsp40 mRNA levels. The class given is cell-based. The note with it: Control 1.0. As to the method:
Levels of HSF1, Hsp70 and Hsp40 mRNA were also determined in response to treatment with SX002 or X003 for 8 or 16 hours.

Series [14] deals with hsf1 and client proteins of Hsp90 in MIA PaCa-2 cells. The experiment in a line: Western blot, MIA PaCa-2. The series is classed as cell-based.
Series [15] has as its system Hs766T pancreatic cancer cells. The experiment in a line: Co-treatment with carfilzomib, apoptosis, Hs766T. The class given is cell-based. The conditions noted are these: 0.1, 0.2 or 0.3 μM X003 with carfilzomib (10 nM). The protocol:
To determine whether the instant withanolides could be used in combination with other treatment regimes, Hs766T pancreatic cancer cells were either treated with 0.1, 0.2 or 0.3 μM X003; 10 or 20 nM carfilzomib; or co-treated with carfilzomib (10 nM) and either 0.1, 0.2 or 0.3 μM X003.

On to `CC1=C(CO)C(=O)O[C@@H]([C@@H](C)C2CC[C@H]3[C@@H]4C[C@H]5O[C@]56[C@@H](O)C=CC(=O)[C@]6(CO)[C@H]4CC[C@]23C)C1` (stereo partly shown) [Compound X001], for which the cell cycle effect entry in the series with BT20 cells [1] and with MDA-MB-231 cells was “G2/M arrest” throughout. For the same molecule, in series [2], the IC50 is 1.91 µM. Moreover, the “cleavage of PARP starting at (concentration)” value in series [3] was 500 nM. Also, the “Log ECF” value in series [4] is 0.71; with HMLEC, 2.54. Further, the “levels of BRCA-1, HSF1, mutant p53, Notch1 and Jagged1” value in series [5] (1, 2, 4, or 8 μM) is on record as “decreased”. The “caspase-3 activation (concentration)” value in series [5] (tested 1, 2, 4, or 8 μM) was in the range of 4 to 8 µM. In addition, in series [6], the pERK levels entry is reported as “increased at higher concentrations”. In addition, in [6], the “total and phosphorylated protein levels of RET, mTOR, P706S kinase” value is reported as “down-regulated in a dose-dependent manner”. Also, the colony formation result in the series with BT20 cells [7] was “not as potent”. In addition, the “Mean % Parent Compound Remaining” value in series [8] turned out to be 27%; in series [9], 28%. Further, the “Positive Significance (− to +++)” value is “−” in the series on Ames test strain TA100 (1.0E−04 M, TA100 +S9); “−” in the series with Ames test strain TA100 (1.0E−04 M, TA100 −S9); “−” in the series on Ames test strain TA100 (1.0E−05 M, TA100 +S9); “−” in the series on Ames test strain TA100 (1.0E−05 M, TA100 −S9); “−” in the series with Ames test strain TA100 (5.0E−05 M, TA100 +S9); “−” in the series on Ames test strain TA100 (5.0E−05 M, TA100 −S9). Besides, the “Positive Significance (− to +++)” value in the series on Ames test strain TA100 (5.0E−06 M, TA100 +S9) was “−”; with Ames test strain TA100 (5.0E−06 M, TA100 −S9) it was “−”. Further, the “Cytotoxicity (% of Control)” value in [10] (1.0E−04 M) is 107 % of Control; in [10] (1.0E−05 M) it was 101 % of Control; in [10] (1.3E−06 M), 96 % of Control; in [10] (2.5E−05 M) it was 93 % of Control; in series [10] (2.5E−06 M) it was 101 % of Control; in series [10] (5.0E−05 M), 101 % of Control. Moreover, the “Cytotoxicity (% of Control)” value in series [10] (5.0E−06 M) is given as 103 % of Control; in series [10] (6.3E−07 M), 99 % of Control. In the series on MCF-7 cells, the induction of apoptosis entry is recorded as “did not induce apoptosis”.
Take `CC(=O)OCC1=C(C)C[C@H]([C@@H](C)C2CC[C@H]3[C@@H]4C[C@H]5O[C@]56[C@@H](OC(C)=O)C=CC(=O)[C@]6(COC(C)=O)[C@H]4CC[C@]23C)OC1=O` (stereo partly shown) [Compound X003, 4,19,27-triacetyl X001]: the “heat shock-induced increase in luciferase activity” value in series [11] was “substantially reduced”. Further, the “heat shock-induced Hsp70 and Hsp40 protein levels” value in series [12] was “failed to block”. In [13] (8 hours), the “HSF1 mRNA level” value was 1.2, the “HSP40 mRNA level” value amounted to 8.3 and the “HSP70 mRNA level” value is recorded as 30.8. For the same molecule, in series [13] (16 hours), the “HSF1 mRNA level” value stood at 1.1, the “HSP40 mRNA level” value is 14.2 and the “HSP70 mRNA level” value is recorded as 183.1. The “stress and client protein response (western blot)” value in series [14] was “induced oxidative and proteotoxic stress, while depleting hsf1 and client proteins of Hsp90”. Also, in series [15], the “apoptosis on co-treatment with carfilzomib” value is listed as “enhances”.
